Source: patent publication US11298363B2, “Triazolobenzazepines as vasopressin V1a receptor antagonists” (RICHTER GEDEON NYRT., priority 2017, dated 2022)

How the values were obtained:
[1] = target: T1, human vasopressin V1a receptor (Homo sapiens, UniProt P37288); test: Functional assay on human vasopressin V1a receptor expressing cell line (intracellular Ca2+ fluorescence); assay type: cell-based; details: 1321N1 cells, (Arg8)-vasopressin at EC80; read-out: IC50 (nM) on hV1a cell line
[2] = target: human vasopressin V2 receptor (Homo sapiens, UniProt P30518); test: Human vasopressin V2 receptor binding assay on 1321N1 cell line; details: for inhibition at 1 µM: read-out: inhibition % at 1 μM on hV2 1321N1 cell line; for Ki: 1321N1 cell line, read-out: Ki on hV2 1321N1 cell line
human vasopressin V2 receptor, sequence (P30518 whole entry): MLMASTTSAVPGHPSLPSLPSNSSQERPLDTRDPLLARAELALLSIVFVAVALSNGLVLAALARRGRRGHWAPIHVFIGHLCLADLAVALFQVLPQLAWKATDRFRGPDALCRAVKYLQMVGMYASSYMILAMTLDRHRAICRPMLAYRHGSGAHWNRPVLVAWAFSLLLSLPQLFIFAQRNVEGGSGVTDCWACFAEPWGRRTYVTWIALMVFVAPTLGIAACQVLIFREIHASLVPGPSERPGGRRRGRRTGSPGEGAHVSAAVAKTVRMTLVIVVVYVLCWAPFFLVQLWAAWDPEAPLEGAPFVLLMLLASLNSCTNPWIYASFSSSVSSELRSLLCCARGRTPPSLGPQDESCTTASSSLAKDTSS
Method: Human Vasopressin V2 Receptor Binding Assay Cells and Radioligand
To determine the final affinity value, the results of at least two independent experiments were taken into account.
Non-specific binding values were determined in the presence of an unlabeled 1.2×10^−6 M (Arg^8)-vasopressin. Samples were incubated in a total volume of 0.55 ml for 90 minutes at 27° C. Membrane-bound and free ligands were separated by filtration through a 0.5% polyethyleneimine-impregnated UniFilter® GF/B™. After drying the filter plates, 40 μl Microscint-20 (Packard) scintillation cocktail was added to the samples. Finally, radioactivity was measured using MicroBeta^2 Microplate Counter (Perkin Elmer).
The radioligand displacement ability of a substance is determined in at least two independent experiments. Specific radioligand binding can be defined as the difference between total and non-specific binding in the presence of a saturation amount of the unlabeled ligand or different concentrations of the substance to be tested. The results are given as a percentage of inhibition of the specific binding achieved in the presence of the substance to be tested.
During fitting, the asymptotes are not fixed. The Ki values (inhibition constant) are given with Cheng-Prusoff equation Ki=IC50/[1+(L/KD)] wherein [L] is the radioligand concentration used in the experiment and [KD] is the affinity of the radioactively labelled ligand for the given receptor. The KD is determined beforehand using the Scatchard curve.

[3] = target: T1, human vasopressin V1a receptor; test: Human vasopressin V1a receptor binding assay; details: 1321N1 cell membranes, [3H]vasopressin; read-out: Ki (nM) on hV1a cell line
Procedure, shortened: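 Ki values come from IC50 via Cheng-Prusoff (KD from prior Scatchard), averaged over at least two independent runs. Human V1a membranes were incubated with radioligand 60 minutes at 27° C., bound ligand collected by filtration; (Arg^8)-vasopressin at 1.2×10^−6 M defined non-specific binding.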

mouse V1a receptor = mouse V1a receptor (Mus musculus, UniProt Q62463); test: Functional V1a in vivo test: inhibition of oxytocin-induced scratching behaviour; details: mice, 10 mg/kg p.o. pretreatment
mouse V1a receptor, sequence (Q62463 whole entry): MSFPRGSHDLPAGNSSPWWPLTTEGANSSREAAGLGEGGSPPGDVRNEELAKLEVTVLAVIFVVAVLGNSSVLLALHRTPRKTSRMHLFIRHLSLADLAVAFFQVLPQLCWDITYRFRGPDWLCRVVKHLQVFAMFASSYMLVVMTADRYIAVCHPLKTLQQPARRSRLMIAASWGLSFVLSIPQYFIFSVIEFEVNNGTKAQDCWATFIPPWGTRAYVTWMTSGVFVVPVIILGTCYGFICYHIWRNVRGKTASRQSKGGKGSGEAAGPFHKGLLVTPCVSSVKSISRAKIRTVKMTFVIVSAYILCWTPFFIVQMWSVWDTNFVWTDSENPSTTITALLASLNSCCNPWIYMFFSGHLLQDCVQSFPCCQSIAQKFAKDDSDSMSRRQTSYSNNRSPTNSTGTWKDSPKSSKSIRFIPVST
Method: Functional V1a In Vivo Test
Male mice (NMRI, ToxiCoop) weighing 18-40 g were used. Animals were kept at least 5 days after delivery, during housing and measurements they were fed and drink ad libitum. The experiments were permitted by the Local Animal Protection Committee and carried out in accordance with the European Animal Protection Directives (EU Directive 2010/63/EU).
Animal behaviour was measured by an automated behavioral analysis system (LABORAS™). The sensors located below platforms detect the mechanical vibration generated by the movement of animal, and transform into an electrical signal (Quinn et al., J Neurosci Methods 2003, 130:83-92). After analyzing signals, the system analyzes the time spent with the following behavioral parameters: locomotion, immobility, climbing, grooming. The grooming algorithm by definition is able to measure the scratching behavioral response. During the experiment, mice were pretreated with the test substance or vehicle, and after the pretreatment period scratching-inducing compound (s.c. 0.3 mg/kg oxytocin) was administered, and then the animals were individually placed into measuring cages. […] To reduce the exploratory activity, the animals were measured after a 1-hour habituation to the cage. The behavioural parameters were compared to the parallel measured parameters of the control animals.
The behavioural inhibitory effect of the substances was calculated with average values of parallel measured vehicle treated groups and presented as the percentage of inhibition: 0% was expressed as average value of scratching behaviour of vehicle pretreated animals (and phys. saline s.c. pretreated with vehicle), while 100% was expressed as average value of scratching of vehicle pretreated animals that received oxytocin subcutaneously. For statistical analysis one-way analysis of variance (ANOVA) with Tukey post hoc test were used.

T1 sequence (P37288 whole entry): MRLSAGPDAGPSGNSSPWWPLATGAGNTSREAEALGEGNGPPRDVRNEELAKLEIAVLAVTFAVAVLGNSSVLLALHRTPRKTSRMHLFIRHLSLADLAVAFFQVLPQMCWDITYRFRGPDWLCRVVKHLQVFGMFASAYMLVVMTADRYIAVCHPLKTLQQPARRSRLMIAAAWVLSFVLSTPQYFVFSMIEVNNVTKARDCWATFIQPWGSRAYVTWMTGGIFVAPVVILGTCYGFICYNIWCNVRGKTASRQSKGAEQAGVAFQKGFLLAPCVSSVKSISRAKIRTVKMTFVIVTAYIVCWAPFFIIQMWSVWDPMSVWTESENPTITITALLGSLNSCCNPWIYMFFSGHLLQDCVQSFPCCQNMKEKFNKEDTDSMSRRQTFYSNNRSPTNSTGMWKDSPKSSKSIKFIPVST

CC(C)(C)OC(=O)NC1Cc2cc(Cl)ccc2-n2c(nnc2C2CCN(c3ccccn3)CC2)C1 (stereo not drawn) [Example 1, Tert-butyl [8-chloro-1-[1-(pyridin-2-yl)piperidin-4-yl]-5,6-dihydro-4H-[1,2,4]triazolo[4,3-a][1]benzazepin-5-yl]carbamate]
IC50 [1]: 95 nM
inhibition at 1 µM [2]: 4%
Ki [3]: 6 nM

NC1Cc2cc(Cl)ccc2-n2c(nnc2[C@H]2CC[C@H](Oc3ccccn3)CC2)C1 (stereo partly drawn) [Example 6, 8-chloro-1-[trans-4-(pyridin-2-yloxy)cyclohexyl]-5,6-dihydro-4H-[1,2,4]triazolo[4,3-a][1]benzazepine-5-amine]
IC50 [1]: 9 nM
inhibition at 1 µM [2]: 3%
Ki [3]: 2 nM

CS(=O)(=O)NC1Cc2cc(Cl)ccc2-n2c(nnc2[C@H]2CC[C@H](Oc3ccccn3)CC2)C1 (stereo partly drawn) [Example 18, N-{8-chloro-1-[trans-4-(pyridin-2-yloxy)cyclohexyl]-5,6-dihydro-4H-[1,2,4]triazolo[4,3-a][1]benzazepin-5-yl}methanesulfonamide]
IC50 [1]: 1.6 nM
Ki [2]: 255 nM
Ki [3]: 0.5 nM

CN(C1Cc2cc(Cl)ccc2-n2c(nnc2[C@H]2CC[C@H](Oc3ccccn3)CC2)C1)S(C)(=O)=O (stereo partly drawn) [Example 19, N-{8-chloro-1-[trans-4-pyridin-2-loxcyclohexyl]-5,6-dihydro-4H-[1,2,4]triazolo[4,3-a][1]benzazepin-5-yl}-N-methylmethanesulfonamide]
IC50 [1]: 1.8 nM
Ki [2]: 610 nM
Ki [3]: 0.4 nM

CN(C)S(=O)(=O)NC1Cc2cc(Cl)ccc2-n2c(nnc2[C@H]2CC[C@H](Oc3ccccn3)CC2)C1 (stereo partly drawn) [Example 20, N′-{8-chloro-1-[trans-4-(pyridin-2-yloxy)cyclohexyl]-5,6-dihydro-4H-[1,2,4]triazolo[4,3-a][1]benzazepin-5-yl}-N,N-dimethylsulfamide]
IC50 [1]: 1 nM
Ki [2]: 365 nM
Ki [3]: 0.7 nM

CNC1Cc2cc(Cl)ccc2-n2c(nnc2[C@H]2CC[C@H](Oc3ccccn3)CC2)C1 (stereo partly drawn) [Example 21, 8-chloro-N-methyl-1-[trans-4-(pyridin-2-yloxy)cyclohexyl]-5,6-dihydro-4H-[1,2,4]triazolo[4,3a][1]benzazepine-5-amine]
IC50 [1]: 4 nM
inhibition at 1 µM [2]: 35%
Ki [3]: 0.7 nM

FC(F)(F)c1ccc2c(c1)CC1(Cc3nnc([C@H]4CC[C@H](Oc5ccccn5)CC4)n3-2)OCCO1 [Example 47]
IC50 [1]: 2.3 nM
Ki [2]: 366 nM
Ki [3]: 0.8 nM

N#Cc1ccc2c(c1)CC1(Cc3nnc([C@H]4CC[C@H](Oc5ccccn5)CC4)n3-2)OCCO1 [Example 66, 1′-[trans-4-(pyridin-2-yloxy)cyclohexyl]-4′H,6′H-spiro[1,3-dioxolane-2,5′-[1,2,4]triazolo[4,3-a][1]benzazepine]-8′-carbonitrile]
inhibition (%) of oxytocin-induced scratching behaviour response (mouse V1a receptor): 76%
IC50 [1]: 2.2 nM
Ki [3]: 0.8 nM

Clc1ccc2c(c1)CC1(Cc3nnc([C@H]4CC[C@H](Oc5ccccn5)CC4)n3-2)OCCCO1 [Example 88, 8′-chloro-1′-[trans-4-(pyridin-2-yloxy)cyclohexyl]-4′H,6′H-spiro[1,3-dioxane-2,5′-[1,2,4]triazolo[4,3-a][1]benzazepine]]
inhibition (%) of oxytocin-induced scratching behaviour response (mouse V1a receptor): 79%
IC50 [1]: 0.9 nM
Ki [3]: 0.3 nM

FC(F)(F)[C@H]1CC[C@H](c2nnc3n2-c2ccc(Cl)cc2CC2(C3)OCCCO2)CC1 [Example 89, 8′-chloro-1′-[trans-4-(trifluoromethyl)cyclohexyl]-4′H,6′H-spiro[[1,3]dioxane-2,5′-[1,2,4]triazolo[4,3-a][1]benzazepine]]
inhibition (%) of oxytocin-induced scratching behaviour response (mouse V1a receptor): 50%
IC50 [1]: 1.9 nM
Ki [3]: 0.4 nM

Fc1ccc2c(c1)CC1(Cc3nnc([C@H]4CC[C@H](Oc5ccccn5)CC4)n3-2)OCCO1 [Example 96, 8′-fluoro-1′-[trans-4-(pyridin-2-yloxy)cyclohexyl]-4′H,6′H-spiro[1,3-dioxolane-2,5′-[1,2,4]triazolo[4,3-a][1]benzazepine]]
inhibition (%) of oxytocin-induced scratching behaviour response (mouse V1a receptor): 49%
IC50 [1]: 0.8 nM
Ki [3]: 0.2 nM

CCN[C@@H]1Cc2cc(Cl)ccc2-n2c(nnc2[C@H]2CC[C@H](Oc3ccccn3)CC2)C1 [Example 99, (5R)-8-chloro-N-ethyl-1-[trans-4-(pyridin-2-yloxy)cyclohexyl]-5,6-dihydro-4H-[1,2,4]triazolo[4,3-a][1]benzazepin-5-amine]
inhibition (%) of oxytocin-induced scratching behaviour response (mouse V1a receptor): 60%
IC50 [1]: 2.5 nM
Ki [3]: 0.3 nM

CN[C@@H]1Cc2cc(Cl)ccc2-n2c(nnc2[C@H]2CC[C@H](Oc3ccccn3)CC2)C1 [Example 100, (5R)-8-chloro-N-methyl-1-[trans-4-(pyridin-2-yloxy)cyclohexyl]-5,6-dihydro-4H-[1,2,4]triazolo[4,3-a][1]benzazepin-5-amine]
inhibition (%) of oxytocin-induced scratching behaviour response (mouse V1a receptor): 96%
IC50 [1]: 1.5 nM
Ki [3]: 0.2 nM

CN(C)[C@@H]1Cc2cc(Cl)ccc2-n2c(nnc2[C@H]2CC[C@H](Oc3ccccn3)CC2)C1 [Example 101, (5R)-8-chloro-N,N-dimethyl-1-[trans-4-(pyridin-2-yloxy)cyclohexyl]-5,6-dihydro-4H-[1,2,4]triazolo[4,3-a][1]benzazepin-5-amine]
inhibition (%) of oxytocin-induced scratching behaviour response (mouse V1a receptor): 105%
IC50 [1]: 1.3 nM
Ki [3]: 0.2 nM

O=C(N[C@@H]1Cc2cc(Cl)ccc2-n2c(nnc2[C@H]2CC[C@H](Oc3ccccn3)CC2)C1)C1CC1 [Example 126, N-{(5R)-8-chloro-1-[trans-4-(pyridin-2-yloxy)cyclohexyl]-5,6-dihydro-4H-[1,2,4]triazolo[4,3-a][1]benzazepin-5-yl}cyclopropanecarboxamide]
inhibition (%) of oxytocin-induced scratching behaviour response (mouse V1a receptor): 43%
IC50 [1]: 1.8 nM
Ki [3]: 0.6 nM

Clc1ccc2c(c1)CC1(Cc3nnc(N4CCC(Oc5ccccn5)CC4)n3-2)OCCO1 [Example 157, 8′-chloro-1′-[4-(pyridin-2-yloxy)piperidin-1-yl]-4′H,6′H-spiro[1,3-dioxolane-2,5′-[1,2,4]triazolo[4,3-a][1]benzazepine]]
inhibition (%) of oxytocin-induced scratching behaviour response (mouse V1a receptor): 108%
IC50 [1]: 0.5 nM
Ki [3]: 0.1 nM

CO[C@]1(C)CC[C@@H](c2nnc3n2-c2ccc(Cl)cc2CC2(C3)OCCO2)CC1 [Example 198, 8′-chloro-1′-(trans-4-methoxy-4-methylcyclohexyl)-4′H,6′H-spiro[1,3-dioxolane-2,5′-[1,2,4]triazolo[4,3-a][1]benzazepine]]
inhibition (%) of oxytocin-induced scratching behaviour response (mouse V1a receptor): 41%
IC50 [1]: 0.9 nM
Ki [3]: 0.2 nM

CO[C@]1(C)CC[C@@H](c2nnc3n2-c2ccc(Cl)cc2CC2(C3)OCCCO2)CC1 [Example 204, 8′-chloro-1′-(trans-4-methoxy-4-methylcyclohexyl)-4′H,6′H-spiro[1,3-dioxane-2,5′-[1,2,4]triazolo[4,3-a][1]benzazepine]]
inhibition (%) of oxytocin-induced scratching behaviour response (mouse V1a receptor): 65%
IC50 [1]: 2.7 nM
Ki [3]: 0.2 nM

CO[C@]1(C)CC[C@H](c2nnc3n2-c2ccc(Cl)cc2CC2(C3)OCCCO2)CC1 [Example 205, 8′-chloro-1′-(cis-4-methoxy-4-methylcyclohexyl)-4′,6′H-spiro[1,3-dioxane-2,5′-[1,2,4]triazolo[4,3-a][1]benzazepine]]
inhibition (%) of oxytocin-induced scratching behaviour response (mouse V1a receptor): 66%
IC50 [1]: 2.7 nM
Ki [3]: 0.2 nM
